Consider 5 molecules from patent US20240284907A1, “NOVEL DERIVATIVES OF NON-CODED AMINO ACIDS AND THEIR USE AS HERBICIDES” (FortePhest LTD., priority 2021, published 2024).

A word on the melting point: it is the temperature of the solid-liquid transition.

In data set [1] the test system is Seeds of Lettuce R. (Super-Jericho). In words: Filter paper bioassay with lettuce seeds: germination and early plant development, Minimal Effective Concentration (MEC). Format: in vivo. As to conditions: lettuce seeds on filter paper, 0 to 1 mmol/l, visually assessed after 6 days. A digest of the protocol:
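Non-sterilized Super-Jericho lettuce seeds, 10 per dish, on filter paper wetted with aqueous test solution at 0–1 mmol/l. Kept 48 h dark, then 4 days at 6/18 dark/light. MEC is the lowest concentration causing no germination or radicle/shoot malformation by visual scoring at day 6; at least two repeats.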

Data set [2] shares this test system. In words: Filter paper bioassay with lettuce seeds: germination, Fully Effective Concentration (FEC). In kind it is in vivo. As to conditions: lowest concentration mostly preventing lettuce seed germination, assessed after 6 days. A digest of the protocol:
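Ten lettuce seeds per Petri dish on filter paper with 2.0 ml aqueous test solution, 0 to 1 mmol/l, kept 48 hours dark then 4 days at 6/18 dark/light. Radicle and shoot assessed visually at day 6; FEC is the lowest concentration mostly preventing germination.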

The subject of data set [3] is Romaine lettuce (Lactuca sativa L.) plants. In words: Post-emergence herbicidal activity on potted Romaine lettuce plants (soil or foliar application). As to conditions: lettuce at 2 to 3 leaves, two weeks after treatment. Format: in vivo. An outline of the steps: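 Potted lettuce at the 2-3 leaf stage received compound in 0.1% aqueous Silwet, up to 0.0001%, applied to soil (1 ml/pot) or sprayed on foliage (0.1 ml/pot), 20 plants per concentration. Visual scoring and aboveground wet weight after two weeks; growth inhibition from median weights versus control.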

In data set [4] the test system is Sinapis. The data set is described as follows: Herbicidal effect on potted weeds, plant development score. As to conditions: soil application 1 mg/pot, scale 0 (dead plants) to 5 (healthy, as Control). Format: in vivo. The protocol: (§1) Weed seeds were sawn in 0.3-liter pots, containing medium-heavy clay-loam soil from organic fields (55% clay, 23% silt, 20% sand, 2% organic matter, pH 7.1). The experiment was conducted in a completely randomized design. Each treatment was replicated 3 times (3 pots). Each compound was typically tested on crops (Corn, Wheat, Soy, Cotton, Oat, Chickpea) and weeds (Amaranth, Chenopodium, Lentils, Sinapis, Silybum).
(§2) The herbicides were applied at dose from 0 (control) to 5 mg/pot. The treatment was performed at the day of sawn (pre-emergence treatment). Then the pots were transferred to a mesh house 24 hours after herbicide application and were sprinkler irrigated to field capacity of the soil. Alternatively, the herbicides were applied on grown plants at stage 2-3 true leaves (post-emergence treatment).
(§3) The plants were grown in the mesh house during the entire experiment. Plant development at 6, 12, 19, 26 and 32 days after application (DAA) were evaluated on a scale of 0 to 5, in which 0 represents dead plants and 5 represents healthy plants similar or not different from Control. In the context of the invention, the herbicidal effect was expressed as a score calculated as an average of assessments of plants vigor, height, and leaf color.

Data set [5] relates to Amaranth. Described as above. In kind it is in vivo. Conditions: soil application 1 mg/pot, scale 0 (dead plants) to 5 (healthy, as Control). The protocol:
as §1, §2, §3

Data set [6] relates to Chenopodium. The description is as above. In kind it is in vivo. Conditions: soil application 1 mg/pot, scale 0 (dead plants) to 5 (healthy, as Control). The protocol: as §1, §2, §3
Data set [7] concerns Silybum. The description is as above. Format: in vivo. As to conditions: soil application 1 mg/pot, scale 0 (dead plants) to 5 (healthy, as Control). The protocol:
as §1, §2, §3

Data set [8] deals with Lentils. The data set is described as above. Format: in vivo. Conditions: soil application 1 mg/pot, scale 0 (dead plants) to 5 (healthy, as Control). On the procedure: as §1, §2, §3
Data set [9] relates to Romaine lettuce (Lactuca sativa L.) plants. The data set is described as follows: Comparison of NAA and DNAA: growth inhibition of potted Romaine lettuce plants. As to conditions: two weeks after treatment. In kind it is in vivo. On the procedure:
The tests were performed on Romaine lettuce (Lactuca sativa L.) plants at the stage 2 to 3 leaves. The plants were grown in mini-pots packed with soil, dimensions 2×2×5 cm, one plant per mini-pot. Test compounds were dissolved in 0.1% aqueous solution water solution of Silwet adjuvant. The test material where applied in rate 0 (Control), 0.01, 0.05, and 0.5 mg/pot. The test compounds were applied on soil or foliar with airbrush (0.1 ml per pot). Each concentration was tested on 20 plants. Two weeks after the treatment the herbicidal effects of the respective test material were visually evaluated (aboveground part and roots. Then the aboveground part of the plants was neatly cut and weighed (wet weight) to assess the growth inhibition caused by the test compound. The growth inhibition (GI) was calculated as following: […]
Where Mt and Mc are median wet weight of treated and control plants, respectively.

Setting [10] is: foliar application, 0.05 mg/pot.
Setting [11] is: foliar application, 0.50 mg/pot.

The molecule `CC(=O)NCCc1nc(Cl)sc1Cl` [ID 5650, N-[2-(2,5-dichloro-1,3-thiazol-4-yl)ethyl]acetamide] returned a melting point of 87 °C.
For “(2,5-dichlorothiophen-3-yl)(difluoro)acetic acid [compound 5640]”, the “Score (activity score of Minimal Effective Concentration, MEC)” value in data set [1] is “Strong (0.01 mM)”. Further, the “FEC (Fully Effective Concentration)” value in data set [2] is 0.100 mM. Also, the “Score (test material causing more than 85% of Growth Inhibition or irreversible plant damage)” value in data set [3] (foliar application) and in data set [3] (soil application) was “strong (0.01 to 0.05)” each time. Also, the “Average Herbicidal Effect, Sinapis” value in data set [4] (post-emergence) stood at 0.0. Besides, the “Average Herbicidal Effect, Amaranth” value was found to be 2.0 in data set [5] (post-emergence) and 4.0 in data set [5] (pre-emergence). The “Average Herbicidal Effect, Chenopodium” value in [6] (pre-emergence) is on record as 5.0. In addition, the “Average Herbicidal Effect, Silybum” value in data set [7] (post-emergence) is reported as 2.0; in data set [7] (pre-emergence), 2.5. Besides, the results for the “Average Herbicidal Effect, Lentils” value in data set [8] (post-emergence) and in [8] (pre-emergence) were 2.1 and 0.0, respectively. Moreover, the “Herbicidal effect, growth application (%)” value (“Herbicidal effect … (%)” for short) in [9] (setting [10]) amounted to 100%; in [9] (setting [11]), 100%; in data set [9] (soil application, 0.01 mg/pot), 5%; in data set [9] (soil application, 0.05 mg/pot), 100%; in data set [9] (soil application, 0.50 mg/pot), 100%.
Turning to “2-(6-bromopyridin-2-yl)-2,2-difluoroacetic acid [compound 6617]”, the “Score (activity score of Minimal Effective Concentration, MEC)” value in data set [1] is given as “Strong (0.01 mM)”. Also, the “Score (test material causing more than 85% of Growth Inhibition or irreversible plant damage)” value is “moderate (0.5)” in data set [3] (foliar application) and “strong (0.01 to 0.05)” in [3] (soil application). Further, the figures for the “Average Herbicidal Effect, Sinapis” value in data set [4] (post-emergence) and in data set [4] (pre-emergence) were 2.0 and 3.5, respectively. For the same molecule, the figures for the “Average Herbicidal Effect, Amaranth” value in data set [5] (post-emergence) and in data set [5] (pre-emergence) were 2.0 and 4.5, respectively. Besides, the results for the “Average Herbicidal Effect, Chenopodium” value in data set [6] (post-emergence) and in [6] (pre-emergence) were 0.5 and 4.5, respectively. Further, the “Average Herbicidal Effect, Silybum” value in data set [7] (post-emergence) is 4.5; in data set [7] (pre-emergence) it was 5.0. The results for the “Average Herbicidal Effect, Lentils” value in data set [8] (post-emergence) and in data set [8] (pre-emergence) were 1.0 and 2.0, respectively. Further, the “Herbicidal effect … (%)” value in [9] (setting [10]) came to 88%; in data set [9] (setting [11]), 100%; in data set [9] (soil application, 0.01 mg/pot), 52%; in [9] (soil application, 0.05 mg/pot), 92%; in [9] (soil application, 0.50 mg/pot), 91%.
For `O=C(O)C(F)(F)c1nc(Cl)sc1Cl` [compound 5667, 2-(2,5-dichloro-1,3-thiazol-4-yl)-2,2-difluoroacetic acid], in data set [1], the “Score (activity score of Minimal Effective Concentration, MEC)” value is “very strong”. In addition, the “Score (test material causing more than 85% of Growth Inhibition or irreversible plant damage)” value in data set [3] (foliar application) and in data set [3] (soil application) was “strong (0.01 to 0.05)” each time. The “Average Herbicidal Effect, Sinapis” value in data set [4] (post-emergence) is reported as 0.0; in data set [4] (pre-emergence), 2.0. The “Average Herbicidal Effect, Amaranth” value in [5] (post-emergence) was 3.0; in data set [5] (pre-emergence), 2.0. Also, the results for the “Average Herbicidal Effect, Chenopodium” value in [6] (post-emergence) and in data set [6] (pre-emergence) were 2.4 and 0.0, respectively. Further, the “Average Herbicidal Effect, Silybum” value in [7] (post-emergence) was 0.0; in data set [7] (pre-emergence), 3.5. Further, the “Average Herbicidal Effect, Lentils” value in [8] (post-emergence) and in data set [8] (pre-emergence) was 0.0 each time. Moreover, the “Herbicidal effect … (%)” value was 92% in data set [9] (setting [10]); 100% in data set [9] (setting [11]); 90% in data set [9] (soil application, 0.01 mg/pot); 91% in data set [9] (soil application, 0.05 mg/pot); 100% in [9] (soil application, 0.50 mg/pot).
Turning to `O=C([O-])C(F)(F)c1csc(Cl)n1.[Na+]` [compound 5666, sodium(2-chloro-1,3-thiazol-4-yl)(difluoro)acetate], in data set [1], the “Score (activity score of Minimal Effective Concentration, MEC)” value was “very strong”. In addition, the “FEC (Fully Effective Concentration)” value in data set [2] is 0.010 mM. The “Score (test material causing more than 85% of Growth Inhibition or irreversible plant damage)” value in [3] (foliar application) and in [3] (soil application) was “strong (0.01 to 0.05)” each time. For the same molecule, the results for the “Average Herbicidal Effect, Sinapis” value in [4] (post-emergence) and in data set [4] (pre-emergence) were 0.0 and 1.0, respectively. Moreover, the “Average Herbicidal Effect, Amaranth” value amounted to 1.2 in data set [5] (post-emergence) and 1.0 in data set [5] (pre-emergence). The “Average Herbicidal Effect, Chenopodium” value in [6] (post-emergence) was found to be 1.5; in [6] (pre-emergence), 0.0. For the same molecule, the figures for the “Average Herbicidal Effect, Silybum” value in [7] (post-emergence) and in data set [7] (pre-emergence) were 0.0 and 0.5, respectively. Besides, the “Average Herbicidal Effect, Lentils” value in data set [8] (post-emergence) and in [8] (pre-emergence) was 0.0 each time.
